Values quoted from earlier work, collected in patent US20200353057A1, “REDUCING IMMUNOGENICITY TO PEGLOTICASE” (Horizon Pharma Rheumatology LLC, priority 2019, published 2020).
Read-outs that look alike come from different tables or passages of the source. Blank lines part the entries; values can stand above or below the molecule they belong to.

Columns and labels:
[1] = test system: organ transplant recipients; details: in vivo
[2] = test system: subjects with refractory gout; details: doses of 4 to 12 mg, within 24 to 72 hours, from 11.1±0.6 mg/dL
[3] = test system: patients with refractory chronic gout; details: Phase 2 program
[4] = diluted in infusion bags
[5] = test system: patients with refractory chronic gout
[6] = test system: patients with lupus nephritis; details: in vivo
[7] = test system: patients treated with allopurinol; details: human, in vivo
[8] = for Detectable in urine: after 8 hours; for Bound to serum proteins: in vivo
[9] = test system: rabbits
[10] = test system: renal transplant and RA patients
[11] = test system: rats

Molecule: pegloticase
Organ transplant recipients with a sustained high titer Ab response to pegloticase [1]: one out of seven
pUAc (plasma urate concentration) after dosing, mean±SD [2]: 1.0±0.5 mg/dL
Dose-response plateau dose [3]: 12 mg
Minimally effective dose [3]: 4 mg
Safe and optimally effective dose [3]: 8 mg
Stability of diluted solution ([4]; 2° C. to 8° C.): 4 h
Stability of diluted solution ([4]; room temperature (20° C. to 25° C.)): 4 h
Patients maintaining a response, antibody titer exceeding 1:2430 at any time ([5]; 7 of 65 patients, another study): 10.8%
Patients with IRs in whom loss of response (return to SUA ≥6 mg/dL) preceded the first IR ([5]; 20/21): 95%
Patients with titers exceeding 1:2430 who developed IRs ([5]; 31 of 52): 60%
Patients maintaining a response, never had an antibody titer above 1:2430 ([5]; 58/65, another study): 89.2%
Patients who developed high titer anti-pegloticase antibodies and subsequently lost response ([5]; 69 of 169 patients, one study): 41%
Occurrence of most common adverse reactions (gout flares, infusion reactions, nausea, contusion or ecchymosis, nasopharyngitis, constipation, chest pain, anaphylaxis, vomiting) ([5]; KXX-treated patients): ≥ 5%
Occurrence of ecchymoses, sore throat, constipation, chest pain, and vomiting ([5]; patients treated with pegloticase): at least 5%
Incidence of infusion-related reactions ([5]; pooled Phase 3, 8 mg biweekly dosing): 26%
Incidence of infusion-related reactions ([5]; pooled Phase 3, 8 mg every-4-week dosing regimen): 40%
Anaphylaxis frequency ([5]; pre-marketing controlled clinical trials): 6.5%
Infusion reactions reported ([5]; pre-marketing controlled clinical trials, 8 mg every 2 weeks): 26%
Participants with high antibody titers who maintained a response (serum urate <6 mg/dL) ([5]; second study): 1 of 52
Participants with high titers who developed IR ([5]; second study): 60%

Molecule: rituximab: biologic arm of a lupus nephritis RCT on top of MMF and glucocorticoids
Rate of serious infections [6]: 16.6 /100 patient-years

Now from value to molecule, other results behind:

Patients who develop allergic reactions [7]: Approximately 2%
Patients with severe hypersensitivity syndrome [7]: about 0.4%
Molecule: Oc1ncnc2[nH]ncc12 [allopurinol]

Bound to serum proteins [8]: 30%
Molecule: Sc1ncnc2nc[nH]c12 [mercaptopurine, 6-mercaptopurine]
Detectable in urine [8]: no mycophenolate mofetil or mercaptopurine is detectable in urine

Bound to serum proteins [8]: 30%
Absorption following oral administration ([8]; oral): well absorbed
Increased susceptibility to infection ([10]; RA): < 1%
Leukopenia ([10]; RA): 28%
Nausea and vomiting ([10]; RA): 12%
Increased susceptibility to infection ([10]; renal transplant): 20%
Leukopenia ([10]; renal transplant): > 50%
Neoplasia (lymphoma) ([10]; renal transplant): 0.5%
Neoplasia (other than lymphoma) ([10]; renal transplant): 3%
Molecule: COc1c(C)c2c(c(O)c1C/C=C(\C)CCC(=O)OCCN1CCOCC1)C(=O)OC2 [Mycophenolate mofetil, 2-morpholinoethyl (E)-6-(1,3-dihydro4-hydroxy-6-methoxy-7-methyl-3-oxo-5-isobenzofuranyl)-4-methyl-4-hexenoate]
Teratogenic effects [9]: teratogenic effects
Detectable in urine [8]: no mycophenolate mofetil or mercaptopurine is detectable in urine
Teratogenic effects [11]: teratogenic effects
